Publication PMC12728982, “Multichiral Half-Sandwich Ru(II) and Os(II) Anticancer Complexes Containing a Glutathione Synthesis Inhibitor” (Organometallics, 2025)

Key:
[1] = test system: IGROV-1 human ovarian cancer cells; experiment: Apoptosis assay, annexin V and PI, flow cytometry; type: cell-based; details: IGROV-1, 50 or 100 μM, 24 h
Method: Apoptosis assays using annexin V and PI as markers were carried out to investigate possible modes of cell death. For the clinical drug cisplatin, apoptosis is the major mode of cell death. […] Other mechanisms of cell death such as ferroptosis could be investigated in future work. […]
was aspirated, cells washed in ice-cold PBS and then stained with 0.2 mg/mL RNase, 0.05 mg/mL propidium iodide (PI) in PBS for 25 min in the dark and on ice. Excess dye was removed, and cells were re-suspended in PBS. Samples were analysed by flow cytometry using the BD FACSMelody™ Cell Sorter (R653880001) and data analysis on FlowJo™ v10 Software (BD Life […]
IGROV-1 cells (1 x 106) were seeded in a 6-well plate and incubated for 24 h at 310 K. Stock solutions (200 µM) of the complexes were prepared by dissolving the compound in 5% (v/v) DMSO followed by dilution with DMEM and then diluted to desired concentrations. All complexes (50 µM and 100 µM) were added to the wells and incubated for 24 h. […] Samples were analysed by flow cytometry using the BD FACSMelody™ Cell Sorter (R653880001) and data analysis on FlowJo™ v10 Software (BD Life Sciences).9 […]
(§1) Percentage of IGROV -1 cancer cells in non -apoptotic, apoptotic (early and late) or necrotic phases determined by flow cytometry after 24 h treatment with Os/Ru L -BSO and glycine complexes. […] Standard deviations calculated for N=3. […]

[2] = test system: intracellular GSH in IGROV-1 cells; experiment: Glutathione colorimetric detection assay; type: cell-based, human; details: IGROV-1, 50 μM, 24 h; statistical significance not confirmed
Method: This lowering was not observed for Ru-LBSO which is not active in this cell line. Other papers have shown a similar result by including L-BSO as an additional agent, therefore showing L-BSO remains inhibitory.
Once the agarose had set , the slides were submerged in alkaline lysis solution (1.3 M NaCl, 100 mM Na2EDTA, 0.1% sodium lauryl sarcosinate, 0.26 M NaOH pH > 13) and incubated overnight at 277 K in the dark. The following day the slides were rinsed for 20 min three times in the electrophoresis solution ([…] NaOH, 2mM Na 2EDTA pH 12.3). The slides were then placed into the electrophoresis tank with fresh electrophoresis buffer, 1 -2 mm above the slides. Electrophoresis was run at 18.3 V for 25 min. Once electrophoresis was complete, slides were rinsed in distilled water and placed in 2.5 µg/mL PI for 20 min. After staining, cells were rinsed in distilled water to remove excess stain. Twenty comet images per sample were taken by confocal microscopy and analysed by OpenComet. 10
1 x 10^6 IGROV-1 cells were seeded in a 6-well plate and incubated for 24 h at 310 K. All complexes (50 µM and 100 µM) were added to the wells and incubated for 24 h. […]
as §1

[3] = Aqueous stability / hydrolysis monitored by 1H NMR; type: physicochemical; details: 3:7 v/v methanol-d4:D2O, 310 K, 36 h, then excess NaCl (130 mM) 24 h

Q: Which results are given for [(p-cymene)Os(L-BSO)Cl] [Os-LBSO]?
A: Apoptosis / mode of cell death vs untreated cells [1]: no significant differences; Lowering of intracellular GSH level [2]: ca. 50%; Hydrolysis [3]: does not readily hydrolyze
